From patent publication US20160168195A1, “OLIGOPEPTIDES AND PROCESS FOR PREPARATION THEREOF” (Council of Scientific & Industrial Research, priority 2011, published 2016)

How the values were obtained:
[1] = tested on: human cervical cancer cell line (HeLa); experiment: Determination of IC50 in cancer cell lines (cell counting, trypan blue), HeLa; format: cell-based; settings: 24 h with compound (1-40 nM), inhibition of cell proliferation, read-out: IC50 against He La cells
Protocol: (§1) Then the medium was replaced with fresh medium containing vehicle (0.1% DMSO) or different concentrations of compounds (1-40 nM) and the cells were grown for an additional 24 h. Both attached and floating cells were harvested and counted after staining with trypan blue (Rathinasamy et al, BMC Cancer 2010; 10:213). Percentage inhibition of cell proliferation was plotted against compound concentration using Origin Pro 7.5 software (Table 2).

MCF-7 cells = experiment: Determination of IC50 in cancer cell lines (cell counting, trypan blue), MCF-7; format: cell-based, human; settings: MCF-7 (breast cancer)
Protocol: as §1

MDA-MB-231 cells = experiment: Determination of IC50 in cancer cell lines (cell counting, trypan blue), MDA-MB-231; format: cell-based, human; settings: MDA-MB-231 (highly metastatic breast cancer)
Protocol: as §1

Goat brain tubulin = experiment: Microtubule polymerization assay (light scattering); format: biochemical; settings: tubulin 10 μM, 30 min, compared with compounds 1, 2, 3
Protocol: Microtubule polymerization assay: Goat brain tubulin (10 μM) was incubated without or with different compounds 1, 2, 3 and compound 5 (5 μM) in microtubule assembly buffer (1 M monosodium glutamate, 3 mM MgCl2, 1 mM EGTA and 25 mM PIPES pH 6.8) on ice for 20 minutes. Then, GTP (1 mM) was added to the reaction mixture. The assembly of tubulin was monitored at 37° C. using a spectrofluorometer for 30 min. Similar experiment was done with compound 5 (1, 5, 7 and 10 μM). MAPs-rich tubulin (1 mg/mL) was incubated without or with different concentrations of compound 5 (1, 3, 5 and 10 μM) in PEM buffer (25 mM pipes pH 6.8 containing 3 mM MgCl2 and 1mM EGTA) for 15 min on ice and then, 1 mM GTP was added to the reaction mixture. The effect of D1, D2, D3 and D5 on the assembly kinetics was monitored as described above for purified tubulin (FIG. 3) (Gupta and Panda, Biochemistry 2002; 41:13029) to study depolymerization of microtubules which is a mechanism of anticancer activity.

HeLa cells [2] = experiment: Apoptosis by annexin V and propidium iodide staining; format: cell-based, human; settings: HeLa, 7, 15, 30 nM, 24 h
Protocol: (§2) After 40 h of incubation, cells were trypsinized and collected by centrifugation. After washing pellet twice in PBS, the cells were lysed in buffer (50 mM Tris pH 8.0, 10 mM EDTA, 0.5% sarcosine, and 0.5 mg/mL proteinase K), and incubated at 50° C. for 1 h in the heating block. RNase A (1 mg/mL) was added and incubation was further extended for 1 h. The samples were allowed to come to 25° C. Gel electrophoresis was done using 2% agarose and the fragmented genomic DNA visualized after staining with ethidium bromide using UV gel documentation system (FIG. 2) (Rathinasamy et al, FEBS J 2006; 273:4114). HeLa cells were incubated with different concentrations of compound 5 (7, 15 and 30 nM) for 24 h. Cells were stained with annexin V and propidium iodide. The number of cells undergoing apoptosis was estimated by counting the annexin V and propidium iodide positive cells (FIG. 13).

[3] = tested on: microtubules of HeLa cells; experiment: Effect on interphase and mitotic microtubules of HeLa cells (immunostaining); format: cell-based, human
Protocol: Effect of Compound 5 on interphase and mitotic microtubules of HeLa cells: HeLa cells were seeded at a density of 0.6×10^5 cells/mL and were grown as monolayer on glass cover slips. Compounds diluted in Dimethyl sulfoxide (DMSO) (0.1% final concentration) were added to the culture medium 24 h after seeding. Then, the medium was replaced with fresh medium containing vehicle (0.1% DMSO) or different concentrations (7, 15, 30 nM) of compound 5 and the incubation continued for further 24 h. The cells were then fixed with 3.7% formaldehyde at 37° C. for 30 min and immunostained using tubulin antibody (FIGS. 4 and 5) (Mohan R and Panda D, Cancer Res. 2008, 68: 6181). The DNA was stained using Hoechst 33258 dye. The images were visualized by TE Eclipse 2000U fluorescence microscope (Nikon, Tokyo, Japan) and analyzed with Image-Pro Plus software.

HeLa cells [4] = experiment: Apoptosis detection by DNA fragmentation assay; format: cell-based, human; settings: HeLa, 7, 15, 30 nM, 40 h
Protocol: as §2

[5] = tested on: solid tumors and soft tissue sarcomas; settings: cited from earlier work
[6] = in vivo; cited from earlier work

CC[C@H](C)C(/C=C/C(=O)NCC1O[C@@H](C(=O)N[C@@H](Cc2ccccc2)C2=NCCS2)[C@@H](OC)[C@@H]1OC)N(C)C(=O)[C@@H](NC(=O)[C@@H](NC)C(C)C)C(C)C (stereo partly drawn) [Compound 1, Dov(R^1═H)-Val-(4S,5S)-Dil(X,Y═CH)-SAA(2R)-Doe(R^2=2-(4,5-dihydrothiazolyl), n=1)]
IC50 [1]: 8.7 nM

CC[C@H](C)C(/C=C/C(=O)NCC1O[C@@H](C(=O)N[C@@H](Cc2ccccc2)C2=NCCS2)[C@@H](OC)[C@@H]1OC)N(C)C(=O)[C@@H](NC(=O)[C@H](C(C)C)N(C)C)C(C)C (stereo partly drawn) [Compound 2, Dov(R^1=Me)-Val-(4S,5S)-Dil(X,Y═CH)-SAA(2R)-Doe(R^2=2-(4,5-dihydrothiazolyl), n=1)]
IC50 [1]: 8.8 nM

CC[C@H](C)C([C@H](CC(=O)NCC1O[C@H](C(=O)N[C@@H](Cc2ccccc2)c2nccs2)[C@@H](OC)[C@@H]1OC)OC)N(C)C(=O)[C@@H](NC(=O)[C@@H](NC)C(C)C)C(C)C (stereo partly drawn) [Compound 3, Dov(R^1═H)-Val-(3S,4S,5S)-Dil(X═C(OCH3)H,Y═CH2)-SAA(2S)-Doe(R^2=2-(thiazolyl), n=1)]
IC50 [1]: 9.9 nM

CC[C@H](C)C([C@H](CC(=O)NCC1O[C@H](C(=O)N[C@@H](Cc2ccccc2)c2nccs2)[C@@H](OC)[C@@H]1OC)OC)N(C)C(=O)[C@@H](NC(=O)[C@H](C(C)C)N(C)C)C(C)C (stereo partly drawn) [Compound 4, Dov(R^1=Me)-Val-(3S,4S,5S)-Dil(X═C(OCH3)H,Y═CH2)-SAA(2S)-Doe(R^2=2-(thiazolyl), n=1)]
IC50 [1]: 16 nM

CC[C@H](C)C([C@@H](CC(=O)NCC1O[C@H](C(=O)NCCc2ccccc2)[C@@H](OC)[C@@H]1OC)OC)N(C)C(=O)[C@@H](NC(=O)[C@@H](NC)C(C)C)C(C)C (stereo partly drawn) [Compound 5, Dov(R^1═H)-Val-(3R,4S,5S)-Dil(X═C(OCH3)H,Y═CH2)-SAA(2S)-Doe(R^2═H, n=1)]
inhibition of proliferation of MCF-7 cells (in words) (MCF-7 cells): inhibited proliferation | IC50 (MCF-7 cells; 24 h, read-out: IC50 values for compound 5, MCF-7 cells): 15 ± 7 nM | inhibition of proliferation of MDA-MB-231 cells (in words) (MDA-MB-231 cells): inhibited proliferation | IC50 (MDA-MB-231 cells; 24 h, read-out: IC50 values for compound 5, MDA-MB-231 cells): 13 ± 5 nM | effect on assembly of purified tubulin, relative potency (in words) (Goat brain tubulin): maximum potency | induction of apoptosis (Annexin V and PI staining, in words) (HeLa cells [2]): induced apoptosis | effect on interphase microtubules of HeLa cells (in words) ([3]; 7, 15, 30 nM, 24 h): perturbed microtubule network | effect on mitotic microtubules of HeLa cells (in words) ([3]; 7, 15, 30 nM, 24 h): perturbed microtubule network | depolymerization of interphase and mitotic microtubules (in words) ([3]; at 15 to 30 nM): showed depolymerization of interphase and mitotic microtubules | IC50 [1]: 6.8 nM | genomic DNA fragmentation (in words) (HeLa cells [4]): DNA fragmentation | genomic DNA fragmentation (in words) (HeLa cells [4]; listed as D5): caused genomic DNA fragmentation

CC[C@H](C)C([C@@H](CC(=O)NCC1O[C@@H](C(=O)NCCc2ccccc2)[C@@H](OC)[C@@H]1OC)OC)N(C)C(=O)[C@@H](NC(=O)[C@@H](NC)C(C)C)C(C)C (stereo partly drawn) [Compound 6, Dov(R^1═H)-Val-(3R,4S,5S)-Dil(X═C(OCH3)H,Y═CH2)-SAA(2R)-Doe(R^2═H, n=1)]
IC50 [1]: 15 nM

CC[C@H](C)C([C@H](O)CC(=O)NCC1O[C@@H](C(=O)NCc2ccccc2)[C@@H](OC)[C@@H]1OC)N(C)C(=O)[C@@H](NC(=O)[C@@H](NC)C(C)C)C(C)C (stereo partly drawn) [Compound 7, Dov(R^1═H)-Val-(3R,4S,5S)-Dil(X═C(OH)H,Y═CH2)-SAA(2R)-Doe(R^2═H, n=0)]
IC50 [1]: 16 nM

CC[C@H](C)C([C@H](O)CC(=O)NCC1O[C@H](C(=O)NCc2ccccc2)[C@@H](OC)[C@@H]1OC)N(C)C(=O)[C@@H](NC(=O)[C@@H](NC)C(C)C)C(C)C (stereo partly drawn) [Compound 8, Dov(R^1═H)-Val-(3R,4S,5S)-Dil(X═C(OH)H,Y═CH2)-SAA(2S)-Doe(R^2═H, n=0)]
IC50 [1]: 12 nM

Dolastatin-10
responses in phase I and II clinical trials (in words) ([5]; variety of solid tumors and soft tissue sarcomas, Von Mehren et al 2004): did not demonstrate any responses

Dolastatin-15
side effects (in words) [6]: severe side effects such as arterial hypertension and myocardial infarction

TZT-1027
activity in Phase II trials (in words) ([5]; Phase II, Patel et al 2006): no activity
